Results from ChEMBL document CHEMBL1121827, “Showdomycin analogues: synthesis and antitumor evaluation” (J Med Chem, 1981).

Assays:
[1] = In vivo antitumor activity expressed as lethal dose with daily administration schedule against P388 murine leukemia cells; format: ADME, organism-based; details: mouse
L1210 [2] = test: Cytotoxicity inhibition against cultured L1210 cells at 400 uM; format: functional; details: Mus musculus
L1210 [3] = test: Cytotoxicity inhibition against cultured L1210 cells at 200 uM; format: functional; details: Mus musculus

CC(=O)OC[C@H]1O[C@@H](N2C(=O)C=CC2=O)[C@H](OC(C)=O)[C@@H]1OC(C)=O showed an LD50 [1] of 10 mg/kg.

For O=C1C=CC(=O)N1C1O[C@H](CO)[C@@H](O)[C@H]1O (stereo partly specified), the LD50 [1] was 35 mg/kg.

O=C1C=C(Cl)C(=O)N1C1O[C@H](CO)[C@@H](O)[C@H]1O (stereo partly specified) gave an LD50 [1] of 18 mg/kg.

In the case of CC1=CC(=O)N(C2O[C@H](CO)[C@@H](O)[C@H]2O)C1=O (stereo partly specified), the inhibition at 400 µM (L1210 [2]) was 85%, the inhibition at 200 µM (L1210 [3]) was 95% and the LD50 [1] was 100 mg/kg.
